# Assay results: ChEMBL document CHEMBL5212743, “Selectivity Literature for EUbOPEN Chemogenomics Library wave 3” (2023)
# Legend:
# [1] = biological target: Histone-lysine N-methyltransferase NSD3 (Homo sapiens) (UniProt Q9BZ95); experiment: Selectivity interaction (Methyltransferase panel) EUB0000198b NSD3; settings: at 10 µM
# [2] = biological target: Myosin light chain kinase, smooth muscle (Homo sapiens) (UniProt Q15746); experiment: Selectivity interaction (KinomScan Ambit) EUB0000622a MYLK; settings: at 10 µM
# [3] = biological target: ALK tyrosine kinase receptor (Homo sapiens, UniProt Q9UM73); experiment: Selectivity interaction (KinomScan Ambit) EUB0000622a ALK; settings: at 10 µM
# [4] = tested on: T1, Receptor-type tyrosine-protein kinase FLT3 (Homo sapiens), P36888 [D835Y]; experiment: Selectivity interaction (KinomScan Ambit) EUB0000622a FLT3; settings: at 10 µM
# T1 sequence (whole entry): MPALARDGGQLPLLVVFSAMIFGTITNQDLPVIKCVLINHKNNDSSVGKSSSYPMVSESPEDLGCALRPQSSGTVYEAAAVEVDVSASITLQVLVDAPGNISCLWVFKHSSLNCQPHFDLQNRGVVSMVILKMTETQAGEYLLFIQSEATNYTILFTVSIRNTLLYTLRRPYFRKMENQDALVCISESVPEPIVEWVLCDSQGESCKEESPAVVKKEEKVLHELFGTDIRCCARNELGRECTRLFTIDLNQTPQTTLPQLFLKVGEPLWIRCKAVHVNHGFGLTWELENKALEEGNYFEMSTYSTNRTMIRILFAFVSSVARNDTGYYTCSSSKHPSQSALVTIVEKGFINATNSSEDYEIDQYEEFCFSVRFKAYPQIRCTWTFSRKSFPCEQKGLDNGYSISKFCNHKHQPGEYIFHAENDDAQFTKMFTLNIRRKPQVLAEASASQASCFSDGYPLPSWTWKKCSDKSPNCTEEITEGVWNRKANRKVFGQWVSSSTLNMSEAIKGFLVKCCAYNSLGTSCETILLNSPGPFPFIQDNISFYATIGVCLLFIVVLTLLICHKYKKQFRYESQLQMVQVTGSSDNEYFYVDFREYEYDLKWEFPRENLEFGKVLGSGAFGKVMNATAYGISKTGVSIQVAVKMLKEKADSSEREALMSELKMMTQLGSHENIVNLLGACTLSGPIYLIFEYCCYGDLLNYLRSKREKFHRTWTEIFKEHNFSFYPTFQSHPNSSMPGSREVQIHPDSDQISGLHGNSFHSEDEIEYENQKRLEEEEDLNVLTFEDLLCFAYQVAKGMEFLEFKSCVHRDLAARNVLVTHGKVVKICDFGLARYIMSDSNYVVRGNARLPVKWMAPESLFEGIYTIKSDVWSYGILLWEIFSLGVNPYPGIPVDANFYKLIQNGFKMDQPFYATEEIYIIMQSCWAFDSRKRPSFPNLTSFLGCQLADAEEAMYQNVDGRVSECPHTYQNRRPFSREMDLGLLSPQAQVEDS
# [5] = biological target: Dual specificity tyrosine-phosphorylation-regulated kinase 1B (Homo sapiens, UniProt Q9Y463); experiment: Selectivity interaction (KinomeScan (DiscoverX)) EUB0000334a DYRK1B; settings: at 1 µM
# Dual specificity tyrosine-phosphorylation-regulated kinase 1B, sequence (Q9Y463 whole entry, looked up): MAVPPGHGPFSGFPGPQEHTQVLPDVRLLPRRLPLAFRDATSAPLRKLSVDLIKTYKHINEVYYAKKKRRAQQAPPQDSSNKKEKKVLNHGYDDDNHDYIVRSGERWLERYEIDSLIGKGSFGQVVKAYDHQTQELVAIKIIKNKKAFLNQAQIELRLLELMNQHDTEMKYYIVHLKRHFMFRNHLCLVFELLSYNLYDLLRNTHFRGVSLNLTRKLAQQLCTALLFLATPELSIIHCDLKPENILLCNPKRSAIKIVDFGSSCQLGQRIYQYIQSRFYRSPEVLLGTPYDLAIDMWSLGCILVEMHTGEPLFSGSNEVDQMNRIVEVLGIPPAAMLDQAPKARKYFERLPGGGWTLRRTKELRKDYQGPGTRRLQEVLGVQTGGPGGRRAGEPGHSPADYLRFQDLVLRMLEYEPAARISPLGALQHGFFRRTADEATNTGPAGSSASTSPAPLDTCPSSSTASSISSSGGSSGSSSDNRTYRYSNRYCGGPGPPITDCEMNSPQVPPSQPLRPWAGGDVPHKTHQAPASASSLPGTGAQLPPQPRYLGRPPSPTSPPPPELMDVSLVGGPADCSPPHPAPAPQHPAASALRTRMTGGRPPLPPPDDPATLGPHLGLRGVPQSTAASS
# [6] = biological target: T2, Gamma-aminobutyric acid receptor subunit alpha-1 (Homo sapiens) (UniProt P14867); experiment: (§1) Selectivity interaction (GPCR panel (PDSP screen)) EUB0000334a GABRA1; settings: at 10 µM
# T2 sequence (whole entry): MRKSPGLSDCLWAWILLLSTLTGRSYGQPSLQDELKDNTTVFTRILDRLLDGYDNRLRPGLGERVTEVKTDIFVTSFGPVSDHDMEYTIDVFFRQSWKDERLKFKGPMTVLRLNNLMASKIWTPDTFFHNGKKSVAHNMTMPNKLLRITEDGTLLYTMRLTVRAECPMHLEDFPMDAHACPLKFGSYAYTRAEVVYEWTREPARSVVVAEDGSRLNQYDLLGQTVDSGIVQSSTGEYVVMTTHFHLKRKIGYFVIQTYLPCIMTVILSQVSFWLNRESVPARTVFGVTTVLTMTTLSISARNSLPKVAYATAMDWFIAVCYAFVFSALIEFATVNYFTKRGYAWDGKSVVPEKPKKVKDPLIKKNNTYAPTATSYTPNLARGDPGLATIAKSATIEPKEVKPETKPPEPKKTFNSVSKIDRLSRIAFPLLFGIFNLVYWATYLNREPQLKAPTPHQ
# [7] = biological target: T2, Gamma-aminobutyric acid receptor subunit alpha-1 (Homo sapiens); experiment: as §1; settings: at 10 µM; remark: listed apart in the source
# [8] = biological target: Rho-associated protein kinase 1 (Homo sapiens) (UniProt Q13464); experiment: Selectivity interaction (KinomeScan (DiscoverX)) EUB0000334a ROCK1; settings: at 1 µM
# Rho-associated protein kinase 1 (Homo sapiens), sequence (Q13464 2-1354 limits assumed): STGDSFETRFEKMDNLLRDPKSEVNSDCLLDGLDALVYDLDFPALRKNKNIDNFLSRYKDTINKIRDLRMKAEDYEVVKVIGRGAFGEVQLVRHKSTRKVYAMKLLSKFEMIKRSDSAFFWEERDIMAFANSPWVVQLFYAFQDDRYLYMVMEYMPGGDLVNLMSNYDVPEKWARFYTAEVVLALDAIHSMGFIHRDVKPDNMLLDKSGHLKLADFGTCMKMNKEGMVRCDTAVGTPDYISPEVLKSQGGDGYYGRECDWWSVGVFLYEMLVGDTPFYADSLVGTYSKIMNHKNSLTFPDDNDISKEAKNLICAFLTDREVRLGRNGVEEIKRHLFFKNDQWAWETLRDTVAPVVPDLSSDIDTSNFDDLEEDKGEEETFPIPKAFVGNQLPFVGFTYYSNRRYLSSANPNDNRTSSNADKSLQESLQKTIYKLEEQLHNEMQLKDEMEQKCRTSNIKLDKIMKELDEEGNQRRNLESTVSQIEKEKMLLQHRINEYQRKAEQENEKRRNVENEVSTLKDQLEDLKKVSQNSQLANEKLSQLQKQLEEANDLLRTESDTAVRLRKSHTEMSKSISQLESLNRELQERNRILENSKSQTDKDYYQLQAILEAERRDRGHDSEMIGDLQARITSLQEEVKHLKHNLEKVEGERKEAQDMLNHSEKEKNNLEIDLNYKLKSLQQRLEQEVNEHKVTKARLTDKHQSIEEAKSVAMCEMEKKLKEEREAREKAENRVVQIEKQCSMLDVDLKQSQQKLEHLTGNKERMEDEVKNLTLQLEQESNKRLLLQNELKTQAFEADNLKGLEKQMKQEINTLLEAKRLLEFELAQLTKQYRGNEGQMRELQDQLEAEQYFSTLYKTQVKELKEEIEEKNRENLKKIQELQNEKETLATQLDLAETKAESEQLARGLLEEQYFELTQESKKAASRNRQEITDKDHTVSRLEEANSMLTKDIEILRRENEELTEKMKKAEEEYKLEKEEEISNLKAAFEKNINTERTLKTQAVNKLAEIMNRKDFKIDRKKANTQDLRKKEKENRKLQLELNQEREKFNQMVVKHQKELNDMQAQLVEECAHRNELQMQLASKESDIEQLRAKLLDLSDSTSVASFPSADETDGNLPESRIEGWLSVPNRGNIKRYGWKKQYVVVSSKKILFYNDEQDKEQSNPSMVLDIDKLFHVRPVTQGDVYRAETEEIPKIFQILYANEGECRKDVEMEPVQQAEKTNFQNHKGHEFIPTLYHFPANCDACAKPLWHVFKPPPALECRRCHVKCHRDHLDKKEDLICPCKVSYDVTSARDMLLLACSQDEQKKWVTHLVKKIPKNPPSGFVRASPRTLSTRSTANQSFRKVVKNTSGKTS
# [9] = biological target: T3, Muscarinic acetylcholine receptor M2 (Homo sapiens) (UniProt P08172); experiment: Selectivity interaction (Eurofins-Panlabs panel) EUB0000295b CHRM2; settings: at 10 µM
# T3 sequence (whole entry): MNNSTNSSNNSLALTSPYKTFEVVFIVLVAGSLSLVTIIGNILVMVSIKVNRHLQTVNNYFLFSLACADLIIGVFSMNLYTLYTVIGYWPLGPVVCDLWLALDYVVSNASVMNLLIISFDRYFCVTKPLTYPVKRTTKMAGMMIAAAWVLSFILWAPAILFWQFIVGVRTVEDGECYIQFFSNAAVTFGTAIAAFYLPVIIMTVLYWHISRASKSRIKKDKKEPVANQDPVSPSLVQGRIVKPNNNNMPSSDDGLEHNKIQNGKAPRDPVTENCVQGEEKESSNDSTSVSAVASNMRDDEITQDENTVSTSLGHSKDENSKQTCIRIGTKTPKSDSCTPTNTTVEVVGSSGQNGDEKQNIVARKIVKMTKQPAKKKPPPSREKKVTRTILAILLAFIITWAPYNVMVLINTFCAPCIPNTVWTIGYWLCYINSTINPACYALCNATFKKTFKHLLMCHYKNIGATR
# [10] = biological target: SRSF protein kinase 2 (Homo sapiens) (UniProt P78362); experiment: Selectivity interaction (KinomeScan (DiscoverX)) EUB0000295b SRPK2; settings: at 1 µM
# [11] = biological target: T4, Phosphatidylinositol 4,5-bisphosphate 3-kinase catalytic subunit delta isoform (Homo sapiens) (UniProt O00329); experiment: Selectivity interaction (KinomeScan (DiscoverX)) EUB0000295b PIK3CD; settings: at 1 µM
# T4 sequence (whole entry): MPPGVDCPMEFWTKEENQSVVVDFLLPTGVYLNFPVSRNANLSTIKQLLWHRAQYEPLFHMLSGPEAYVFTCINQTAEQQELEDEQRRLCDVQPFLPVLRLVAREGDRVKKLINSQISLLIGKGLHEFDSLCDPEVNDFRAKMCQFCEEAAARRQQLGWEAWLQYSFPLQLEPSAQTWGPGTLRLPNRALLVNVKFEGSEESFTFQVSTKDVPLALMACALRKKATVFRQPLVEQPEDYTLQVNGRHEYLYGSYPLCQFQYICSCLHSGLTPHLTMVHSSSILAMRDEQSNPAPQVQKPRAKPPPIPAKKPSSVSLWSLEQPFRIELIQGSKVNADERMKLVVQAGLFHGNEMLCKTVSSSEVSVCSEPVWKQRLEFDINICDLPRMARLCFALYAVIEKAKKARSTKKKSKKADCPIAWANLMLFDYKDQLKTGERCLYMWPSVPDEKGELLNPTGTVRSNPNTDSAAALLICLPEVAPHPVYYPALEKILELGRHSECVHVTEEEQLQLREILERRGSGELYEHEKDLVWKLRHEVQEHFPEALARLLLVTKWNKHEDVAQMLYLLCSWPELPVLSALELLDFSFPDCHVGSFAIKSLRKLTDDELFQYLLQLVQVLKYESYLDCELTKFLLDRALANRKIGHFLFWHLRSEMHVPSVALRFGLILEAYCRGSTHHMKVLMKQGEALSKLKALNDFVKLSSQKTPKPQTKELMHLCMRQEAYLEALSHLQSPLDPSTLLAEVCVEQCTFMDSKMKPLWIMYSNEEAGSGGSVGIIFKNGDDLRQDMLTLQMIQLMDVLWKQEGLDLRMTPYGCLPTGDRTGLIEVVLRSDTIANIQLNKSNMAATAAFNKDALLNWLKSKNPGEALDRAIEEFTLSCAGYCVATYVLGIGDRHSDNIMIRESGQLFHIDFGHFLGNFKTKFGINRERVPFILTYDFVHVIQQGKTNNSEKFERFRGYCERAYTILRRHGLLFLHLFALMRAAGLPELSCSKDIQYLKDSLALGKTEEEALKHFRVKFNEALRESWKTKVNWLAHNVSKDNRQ
# [12] = biological target: RAF proto-oncogene serine/threonine-protein kinase (Homo sapiens) (UniProt P04049); settings: at 1 µM
# [13] = biological target: Serine/threonine-protein kinase pim-1 (Homo sapiens, UniProt P11309); experiment: Selectivity interaction (Kinase Profiler (Millipore)) EUB0000603a PIM1; settings: at 10 µM
# [14] = tested on: Platelet-derived growth factor receptor alpha (Homo sapiens), P16234 [V561D]; experiment: Selectivity interaction (Kinase Profiler (Millipore)) EUB0000603a PDGFRA; settings: at 10 µM
# [15] = biological target: Ribosomal protein S6 kinase alpha-3 (Homo sapiens) (UniProt P51812); settings: at 10 µM
# [16] = biological target: Ribosomal protein S6 kinase alpha-6 (Homo sapiens) (UniProt Q9UK32); settings: at 10 µM
# [17] = biological target: Serine/threonine-protein kinase N2 (Homo sapiens) (UniProt Q16513); settings: at 10 µM
# Serine/threonine-protein kinase N2 (Homo sapiens), sequence (Q16513 whole entry, looked up): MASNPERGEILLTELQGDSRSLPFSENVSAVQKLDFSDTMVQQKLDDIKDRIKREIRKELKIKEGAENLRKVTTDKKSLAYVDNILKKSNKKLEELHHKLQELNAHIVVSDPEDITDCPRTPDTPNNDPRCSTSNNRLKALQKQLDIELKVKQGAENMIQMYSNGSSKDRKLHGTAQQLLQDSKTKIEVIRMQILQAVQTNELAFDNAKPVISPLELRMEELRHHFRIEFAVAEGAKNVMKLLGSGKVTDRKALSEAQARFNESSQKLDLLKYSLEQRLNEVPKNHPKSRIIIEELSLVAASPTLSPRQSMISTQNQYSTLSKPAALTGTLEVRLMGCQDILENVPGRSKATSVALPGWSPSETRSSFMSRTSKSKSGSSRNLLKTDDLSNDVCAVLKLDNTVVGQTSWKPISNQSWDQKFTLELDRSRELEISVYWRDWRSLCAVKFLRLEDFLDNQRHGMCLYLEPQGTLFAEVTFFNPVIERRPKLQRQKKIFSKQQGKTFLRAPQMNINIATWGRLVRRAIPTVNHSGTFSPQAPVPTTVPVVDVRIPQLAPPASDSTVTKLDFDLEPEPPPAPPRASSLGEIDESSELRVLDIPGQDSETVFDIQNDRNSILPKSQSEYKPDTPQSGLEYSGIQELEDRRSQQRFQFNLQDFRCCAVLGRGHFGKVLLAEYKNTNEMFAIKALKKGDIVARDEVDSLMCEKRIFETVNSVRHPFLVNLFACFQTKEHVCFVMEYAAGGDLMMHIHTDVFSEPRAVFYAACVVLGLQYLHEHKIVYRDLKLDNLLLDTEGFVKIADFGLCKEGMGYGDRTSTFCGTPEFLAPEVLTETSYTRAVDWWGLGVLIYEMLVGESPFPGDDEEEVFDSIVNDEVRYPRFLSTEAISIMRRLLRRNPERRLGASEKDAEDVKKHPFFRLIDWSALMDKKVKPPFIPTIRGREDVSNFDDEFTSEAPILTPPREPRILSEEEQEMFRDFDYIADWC
# [18] = biological target: T5, Tyrosine-protein kinase JAK3 (Homo sapiens) (UniProt P52333); settings: at 500 nM
# T5 sequence (whole entry): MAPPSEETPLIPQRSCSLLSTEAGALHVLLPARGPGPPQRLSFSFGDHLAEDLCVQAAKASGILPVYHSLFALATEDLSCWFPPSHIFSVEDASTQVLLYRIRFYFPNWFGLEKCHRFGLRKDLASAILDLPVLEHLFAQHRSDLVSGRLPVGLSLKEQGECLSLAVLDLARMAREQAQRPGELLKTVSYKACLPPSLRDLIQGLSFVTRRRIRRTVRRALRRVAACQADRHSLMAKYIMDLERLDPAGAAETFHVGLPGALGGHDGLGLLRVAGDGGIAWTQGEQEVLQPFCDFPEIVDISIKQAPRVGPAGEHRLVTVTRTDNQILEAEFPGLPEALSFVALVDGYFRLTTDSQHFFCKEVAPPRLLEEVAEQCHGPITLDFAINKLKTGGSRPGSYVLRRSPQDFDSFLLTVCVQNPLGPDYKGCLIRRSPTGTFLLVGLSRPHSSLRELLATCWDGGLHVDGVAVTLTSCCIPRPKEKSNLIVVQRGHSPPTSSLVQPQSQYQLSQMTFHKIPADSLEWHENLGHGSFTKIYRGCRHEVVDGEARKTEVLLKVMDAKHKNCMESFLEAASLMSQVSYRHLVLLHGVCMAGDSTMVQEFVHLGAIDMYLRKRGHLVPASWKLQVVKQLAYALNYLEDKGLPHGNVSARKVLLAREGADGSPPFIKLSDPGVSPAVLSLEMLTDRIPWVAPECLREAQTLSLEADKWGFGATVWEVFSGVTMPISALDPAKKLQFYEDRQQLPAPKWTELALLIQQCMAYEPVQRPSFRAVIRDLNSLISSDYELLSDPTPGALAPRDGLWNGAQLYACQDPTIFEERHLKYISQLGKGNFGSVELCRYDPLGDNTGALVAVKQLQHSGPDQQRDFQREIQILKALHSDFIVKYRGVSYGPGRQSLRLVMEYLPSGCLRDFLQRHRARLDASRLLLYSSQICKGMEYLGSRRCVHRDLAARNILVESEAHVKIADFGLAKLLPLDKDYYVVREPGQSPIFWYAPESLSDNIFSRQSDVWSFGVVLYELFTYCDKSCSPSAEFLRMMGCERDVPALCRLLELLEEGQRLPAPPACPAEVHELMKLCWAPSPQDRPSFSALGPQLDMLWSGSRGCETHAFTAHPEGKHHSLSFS
# [19] = biological target: 5-hydroxytryptamine receptor 1A (Homo sapiens) (UniProt P08908); experiment: Selectivity interaction (CEREP ExpressProfile selectivity/specificity profile (human recombinant receptors)) EUB0000213bCl HTR1A; settings: at 10 µM
# [20] = biological target: Sodium-dependent dopamine transporter (Homo sapiens, UniProt Q01959); experiment: Selectivity interaction (CEREP ExpressProfile selectivity/specificity profile (human recombinant receptors)) EUB0000213bCl SLC6A3; settings: at 10 µM
# [21] = biological target: Sodium-dependent serotonin transporter (Homo sapiens) (UniProt P31645); experiment: Selectivity interaction (CEREP ExpressProfile selectivity/specificity profile (human recombinant receptors)) EUB0000213bCl SLC6A4; settings: at 10 µM
# [22] = biological target: Tyrosine-protein kinase ABL1 (Homo sapiens, UniProt P00519); experiment: Selectivity interaction (HotSpot assay platform (Reaction Biology)) EUB0000632a ABL1; settings: at 1 µM
# [23] = biological target: Protein-tyrosine kinase 6 (Homo sapiens) (UniProt Q13882); experiment: Selectivity interaction (HotSpot assay platform (Reaction Biology)) EUB0000632a PTK6; settings: at 1 µM
# Protein-tyrosine kinase 6 (Homo sapiens), sequence (Q13882 whole entry, looked up): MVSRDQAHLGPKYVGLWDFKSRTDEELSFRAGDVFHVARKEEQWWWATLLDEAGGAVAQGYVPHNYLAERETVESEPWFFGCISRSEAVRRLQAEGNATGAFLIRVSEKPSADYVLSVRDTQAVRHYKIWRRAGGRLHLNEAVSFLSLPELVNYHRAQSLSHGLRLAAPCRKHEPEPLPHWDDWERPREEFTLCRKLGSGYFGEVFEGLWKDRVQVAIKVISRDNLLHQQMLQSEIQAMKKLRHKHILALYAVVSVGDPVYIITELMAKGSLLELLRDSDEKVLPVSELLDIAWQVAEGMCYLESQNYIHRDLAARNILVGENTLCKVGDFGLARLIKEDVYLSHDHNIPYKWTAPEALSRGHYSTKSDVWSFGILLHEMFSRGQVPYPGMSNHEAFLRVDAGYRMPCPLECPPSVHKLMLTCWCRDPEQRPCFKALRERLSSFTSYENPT
# [24] = biological target: Tyrosine-protein kinase Fyn (Homo sapiens, UniProt P06241); experiment: Selectivity interaction (HotSpot assay platform (Reaction Biology)) EUB0000632a FYN; settings: at 1 µM
# [25] = biological target: Vascular endothelial growth factor receptor 2 (Homo sapiens, UniProt P35968); experiment: Selectivity interaction (HotSpot assay platform (Reaction Biology)) EUB0000632a KDR; settings: at 1 µM
# Histone-lysine N-methyltransferase NSD3 (Homo sapiens), sequence (Q9BZ95 whole entry): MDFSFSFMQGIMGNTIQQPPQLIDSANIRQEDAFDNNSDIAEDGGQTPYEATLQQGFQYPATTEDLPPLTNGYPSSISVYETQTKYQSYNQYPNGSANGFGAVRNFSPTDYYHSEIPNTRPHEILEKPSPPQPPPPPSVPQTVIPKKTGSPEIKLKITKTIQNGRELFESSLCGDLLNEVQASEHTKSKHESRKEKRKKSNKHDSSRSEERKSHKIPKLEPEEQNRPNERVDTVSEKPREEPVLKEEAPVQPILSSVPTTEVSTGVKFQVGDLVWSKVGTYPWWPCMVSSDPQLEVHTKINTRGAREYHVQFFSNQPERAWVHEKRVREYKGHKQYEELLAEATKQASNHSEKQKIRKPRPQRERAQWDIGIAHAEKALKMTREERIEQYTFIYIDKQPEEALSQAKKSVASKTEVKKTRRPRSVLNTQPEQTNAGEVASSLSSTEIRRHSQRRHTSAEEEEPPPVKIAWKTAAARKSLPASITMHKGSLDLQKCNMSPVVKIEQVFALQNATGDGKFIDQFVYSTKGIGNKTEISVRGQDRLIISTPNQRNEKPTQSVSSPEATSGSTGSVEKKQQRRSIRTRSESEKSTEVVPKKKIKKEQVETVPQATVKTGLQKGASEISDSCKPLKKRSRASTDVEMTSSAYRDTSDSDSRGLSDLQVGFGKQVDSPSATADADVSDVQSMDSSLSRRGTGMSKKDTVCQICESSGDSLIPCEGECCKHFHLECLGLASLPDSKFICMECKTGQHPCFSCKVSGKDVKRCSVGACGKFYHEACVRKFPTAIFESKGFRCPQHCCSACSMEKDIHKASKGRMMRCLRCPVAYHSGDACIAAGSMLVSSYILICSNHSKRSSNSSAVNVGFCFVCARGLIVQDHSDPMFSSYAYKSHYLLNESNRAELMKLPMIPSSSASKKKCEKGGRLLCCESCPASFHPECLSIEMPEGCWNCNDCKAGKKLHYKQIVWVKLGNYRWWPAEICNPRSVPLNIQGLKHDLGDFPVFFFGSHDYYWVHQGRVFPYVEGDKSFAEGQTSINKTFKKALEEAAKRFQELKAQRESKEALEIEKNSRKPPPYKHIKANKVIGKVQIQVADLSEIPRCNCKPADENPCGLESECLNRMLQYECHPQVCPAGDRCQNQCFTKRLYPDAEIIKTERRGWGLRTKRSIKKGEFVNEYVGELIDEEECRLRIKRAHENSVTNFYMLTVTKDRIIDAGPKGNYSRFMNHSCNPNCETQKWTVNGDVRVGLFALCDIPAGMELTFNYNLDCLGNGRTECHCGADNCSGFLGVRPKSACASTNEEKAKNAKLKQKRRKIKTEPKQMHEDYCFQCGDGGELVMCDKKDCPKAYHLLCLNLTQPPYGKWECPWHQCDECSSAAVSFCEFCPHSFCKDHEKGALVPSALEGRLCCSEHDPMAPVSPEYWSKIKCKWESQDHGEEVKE
smiles,measurement,setting,value
O=C(NC[C@H](O)CN1CCc2ccccc2C1)c1ccnc(NC2CCC2)c1,% of inhibition,[1],75%
O=C(Nc1cccnc1)c1cc(-c2ccnc(F)c2)ccc1OCc1ccccc1,% of control,[2],< 50%
same,% of control,[3],< 50%
same,% of control,[4],< 50%
CN([C@@H]1CCc2c(CC(=O)O)c3cc(S(C)(=O)=O)ccc3n2C1)S(=O)(=O)c1ccc(F)cc1,% of control,[5],36%
same,inhibition,[6],41%
same,inhibition,[7],45%
same,% of control,[8],6%
CC(=O)N1CCC(c2ccc(C(=O)NC(=N)N)cc2C(F)(F)F)CC1,% of inhibition,[9],67%
same,% of control,[10],0%
same,% of control,[11],34%
OCCn1cc(-c2ccc3c(c2)CCC3=NO)c(-c2ccncc2)n1,% of control,[12],8%
C[C@@H](Oc1cc(-n2cnc3ccc(CN4CCN(C)CC4)cc32)sc1C(N)=O)c1ccccc1C(F)(F)F,% of inhibition,[13],90%
same,% of inhibition,[14],96%
same,% of inhibition,[15],92%
same,% of inhibition,[16],92%
same,% of inhibition,[17],92%
CN(C)C(=O)/C(C#N)=C/c1ccc(-c2nc3cnc4[nH]ccc4c3n2C2CCCCC2)o1,% of inhibition,[18],97%
c1ccc([C@@H]2C[C@H]2NC2CCNCC2)cc1,% of inhibition,[19],49%
same,% of inhibition,[20],39%
same,% of inhibition,[21],74%
CC(C)S(=O)(=O)c1ccc2nccc(Nc3ccc4scnc4c3)c2c1,% of inhibition,[22],12%
same,% of inhibition,[23],13%
same,% of inhibition,[24],18%
same,% of inhibition,[25],17%
